Assay results published in ChEMBL document CHEMBL1201862, “PubChem BioAssay data set” (2004).
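Each compound was tested at five concentrations against cells in 96-well plates for 48 hours. GI50 marks 50% less growth.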 Calls of active or inactive are those of the source. Cut-off read from the data, not from the text of the source: active = GI50 up to about 1.1 µM and inactive = higher.

What was measured:
Assay in all cases: NCI-60 cell line screen, 48 h
HT-29 = tested on: HT-29
HOP-92 = tested on: HOP-92
SF-539 = tested on: SF-539
K562 = tested on: K562
Hs-578T = tested on: Hs-578T
DU-145 = tested on: DU-145
SN12C = tested on: SN12C
SF-295 = tested on: SF-295
T47D = tested on: T47D
ACHN = tested on: ACHN
SNB-19 = tested on: SNB-19
CAKI-1 = tested on: CAKI-1
NCI/ADR-RES = tested on: NCI/ADR-RES
A498 = tested on: A498
MOLT-4 = tested on: MOLT-4
SK-OV-3 = tested on: SK-OV-3
SK-MEL-2 = tested on: SK-MEL-2
HCT-15 = tested on: HCT-15
SW-620 = tested on: SW-620

| Compound | GI50 (HT-29) | GI50 (HOP-92) | GI50 (SF-539) | GI50 (K562) | GI50 (Hs-578T) | GI50 (DU-145) | GI50 (SN12C) | GI50 (SF-295) | GI50 (T47D) | GI50 (ACHN) | GI50 (SNB-19) | GI50 (CAKI-1) | GI50 (NCI/ADR-RES) | GI50 (A498) | GI50 (MOLT-4) | GI50 (SK-OV-3) | GI50 (SK-MEL-2) | GI50 (HCT-15) [µM] | GI50 (SW-620) |
| --- | --- | --- | --- | --- | --- | --- | --- | --- | --- | --- | --- | --- | --- | --- | --- | --- | --- | --- | --- |
| OC(c1ccc2c(c1)OCO2)c1ccc2c(c1)OCO2 | > 100 µM (inactive) | > 100 µM (inactive) | > 100 µM (inactive) | > 100 µM (inactive) | > 100 µM (inactive) | > 100 µM (inactive) | > 100 µM (inactive) | > 100 µM (inactive) | > 100 µM (inactive) | > 100 µM (inactive) | > 100 µM (inactive) | > 100 µM (inactive) | > 100 µM (inactive) | 54 µM (inactive) | > 100 µM (inactive) | > 100 µM (inactive) | > 100 µM (inactive) | > 100 | > 100 µM (inactive) |
| CCCNc1ncnc2[nH]ncc12 | > 100 µM (inactive) | 87.5 µM (inactive) | > 100 µM (inactive) | > 100 µM (inactive) | > 100 µM (inactive) | > 100 µM (inactive) | > 100 µM (inactive) | > 100 µM (inactive) | > 100 µM (inactive) | > 100 µM (inactive) | > 100 µM (inactive) | > 100 µM (inactive) | > 100 µM (inactive) | > 100 µM (inactive) | > 100 µM (inactive) | > 100 µM (inactive) | > 100 µM (inactive) | > 100 | > 100 µM (inactive) |
| O=C1/C(=C/c2ccc([N+](=O)[O-])cc2)Sc2scc(-c3cccc([N+](=O)[O-])c3)[n+]21 | 2.31 µM (inactive) | 3.66 µM (inactive) | 2.37 µM (inactive) | 2.77 µM (inactive) | 8.81 µM (inactive) | 10.6 µM (inactive) | 4.1 µM (inactive) | 14.2 µM (inactive) | 3.35 µM (inactive) | 3.97 µM (inactive) | 14.8 µM (inactive) | 2.8 µM (inactive) | 5.89 µM (inactive) | 3.13 µM (inactive) | 1.99 µM (inactive) | 15.9 µM (inactive) | 13.9 µM (inactive) | 2.26 | 1.69 µM (inactive) |
| CC(C)(C)c1ccc(OCC(=O)O)c(Cl)c1 | > 100 µM (inactive) | > 100 µM (inactive) | > 100 µM (inactive) | > 100 µM (inactive) | > 100 µM (inactive) | > 100 µM (inactive) | > 100 µM (inactive) | > 100 µM (inactive) | > 100 µM (inactive) | > 100 µM (inactive) | > 100 µM (inactive) | > 100 µM (inactive) | > 100 µM (inactive) | > 100 µM (inactive) | > 100 µM (inactive) | > 100 µM (inactive) | > 100 µM (inactive) | > 100 | > 100 µM (inactive) |
| CC(C)(C)OC(=O)N1CCC2(CC1)C(=O)NCN2c1ccccc1 | > 100 µM (inactive) | > 100 µM (inactive) | > 100 µM (inactive) | 77.8 µM (inactive) | > 100 µM (inactive) | > 100 µM (inactive) | > 100 µM (inactive) | > 100 µM (inactive) | > 100 µM (inactive) | > 100 µM (inactive) | > 100 µM (inactive) | > 100 µM (inactive) | > 100 µM (inactive) | > 100 µM (inactive) | > 100 µM (inactive) | > 100 µM (inactive) | > 100 µM (inactive) | > 100 | > 100 µM (inactive) |
| Cc1c(/N=N/c2ccccc2)c(C)n(C2OC(CO)C(O)C(O)C2O)c(=S)c1C#N (centres undefined) | 32.7 µM (inactive) | 16.6 µM (inactive) | 24.1 µM (inactive) | 24.4 µM (inactive) | 1 µM (active) | 25.1 µM (inactive) | 20.7 µM (inactive) | 34.5 µM (inactive) | 39.2 µM (inactive) | 30.5 µM (inactive) | 34.8 µM (inactive) | 40.2 µM (inactive) | 42.4 µM (inactive) | 34.9 µM (inactive) | 20.8 µM (inactive) | 34 µM (inactive) | 16.2 µM (inactive) | 28.9 | 29.4 µM (inactive) |
| O=C1c2ccccc2C(=O)c2c(NC3CCCCC3)ccc(Nc3ccc(S(=O)(=O)O)cc3)c21 | 39.4 µM (inactive) | > 100 µM (inactive) | 32.2 µM (inactive) | 52 µM (inactive) | > 100 µM (inactive) | > 100 µM (inactive) | 20.6 µM (inactive) | > 100 µM (inactive) | 29 µM (inactive) | 38.8 µM (inactive) | 84.5 µM (inactive) | > 100 µM (inactive) | > 100 µM (inactive) | > 100 µM (inactive) | 34.9 µM (inactive) | > 100 µM (inactive) | 21.8 µM (inactive) | 32.6 | 35.2 µM (inactive) |
| CN(C)/C=C/c1ccnc2c1C(=O)c1ccccc1C2=O | 14.8 µM (inactive) | 31.8 µM (inactive) | 12.9 µM (inactive) | 2.45 µM (inactive) | 2.78 µM (inactive) | 1.73 µM (inactive) | 5.2 µM (inactive) | 4.56 µM (inactive) | > 48.4 µM (inactive) | 6.73 µM (inactive) | 5.89 µM (inactive) | 16.3 µM (inactive) | 19 µM (inactive) | 31.9 µM (inactive) | 22.5 µM (inactive) | 44 µM (inactive) | 3.65 µM (inactive) | 3.34 | 3.21 µM (inactive) |
| CC(=O)c1[nH]c(Nc2ccc(C)cc2)c(C(=S)Nc2ccccc2)c1N | 25.8 µM (inactive) | 13 µM (inactive) | 29.2 µM (inactive) | 9.31 µM (inactive) | 20 µM (inactive) | 16.3 µM (inactive) | 18.8 µM (inactive) | 17.8 µM (inactive) | 12.8 µM (inactive) | 18.8 µM (inactive) | 16.8 µM (inactive) | 16.9 µM (inactive) | 26.8 µM (inactive) | 13.8 µM (inactive) | 30.1 µM (inactive) | 34.3 µM (inactive) | 15.5 µM (inactive) | 18.3 | 28.4 µM (inactive) |
| CCOP(=O)(OCC)/C(C#N)=C\c1cccc2ccccc12 | > 66.1 µM (inactive) | 23 µM (inactive) | > 56 µM (inactive) | 31 µM (inactive) | 20.2 µM (inactive) | 57.9 µM (inactive) | 82.4 µM (inactive) | 60.1 µM (inactive) | 26.8 µM (inactive) | > 75.9 µM (inactive) | > 57.1 µM (inactive) | 74.3 µM (inactive) | 52.7 µM (inactive) | 44.5 µM (inactive) | 35.4 µM (inactive) | 45.5 µM (inactive) | > 62.1 µM (inactive) | 42.7 | 68.5 µM (inactive) |
| O=C(O)c1nc2cc(Cl)ccc2[nH]c1=O | > 100 µM (inactive) | > 100 µM (inactive) | > 100 µM (inactive) | > 100 µM (inactive) | > 100 µM (inactive) | > 100 µM (inactive) | > 100 µM (inactive) | > 100 µM (inactive) | > 100 µM (inactive) | > 100 µM (inactive) | > 100 µM (inactive) | > 100 µM (inactive) | > 100 µM (inactive) | > 100 µM (inactive) | > 100 µM (inactive) | > 100 µM (inactive) | > 100 µM (inactive) | > 100 | > 100 µM (inactive) |
| Oc1c2ccccc2c2c3c(cccc13)N=N2 [SP-600125] | 25.9 µM (inactive) | 37.6 µM (inactive) | 32.2 µM (inactive) | 48.6 µM (inactive) | 55.1 µM (inactive) | 28.2 µM (inactive) | 14.8 µM (inactive) | 22.5 µM (inactive) | > 100 µM (inactive) | 6.64 µM (inactive) | 50 µM (inactive) | 3.56 µM (inactive) | 22.6 µM (inactive) | 7.03 µM (inactive) | 20.4 µM (inactive) | 21 µM (inactive) | 29 µM (inactive) | 8.04 | 10.9 µM (inactive) |
| Oc1cc(O)c2c(c1)O[C@H](c1cc(O)c(O)c(O)c1)[C@H](O)C2 [EPIGALLOCATECHIN] | – | 20.7 µM (inactive) | 20.3 µM (inactive) | 20.4 µM (inactive) | 52 µM (inactive) | 63.7 µM (inactive) | 20.5 µM (inactive) | 30.5 µM (inactive) | 37.2 µM (inactive) | 21.2 µM (inactive) | > 100 µM (inactive) | 33.1 µM (inactive) | 22.6 µM (inactive) | > 100 µM (inactive) | 14.6 µM (inactive) | 18.6 µM (inactive) | 7.96 µM (inactive) | 34.8 | 17.5 µM (inactive) |
| COc1cc(S(=O)(=O)Nc2ccc(-c3csc(N4C(=O)C(Cl)C4c4ccccc4O)n3)cc2)ccc1Cl (centres undefined) | 36.8 µM (inactive) | 28 µM (inactive) | 30.5 µM (inactive) | 31 µM (inactive) | 0.748 µM (active) | 14.3 µM (inactive) | 33.1 µM (inactive) | > 100 µM (inactive) | 13.1 µM (inactive) | 76.7 µM (inactive) | > 100 µM (inactive) | > 100 µM (inactive) | > 100 µM (inactive) | 0.454 µM (active) | 9.59 µM (inactive) | > 100 µM (inactive) | 37.8 µM (inactive) | > 100 | 32.3 µM (inactive) |
| COc1cc([C@@H]2c3cc4c(cc3[C@@H](Nc3ccc(NC(=O)c5cc(NC(=O)c6cc([N+](=O)[O-])cn6C)cn5C)cc3)[C@H]3COC(=O)[C@H]23)OCO4)cc(OC)c1O | 0.355 µM (active) | 0.885 µM (active) | 0.364 µM (active) | 0.0493 µM (active) | > 48.4 µM (inactive) | 0.374 µM (active) | 3.73 µM (inactive) | 1.57 µM (inactive) | 31.1 µM (inactive) | 0.2 µM (active) | 15.8 µM (inactive) | 0.323 µM (active) | 0.573 µM (active) | 1.35 µM (inactive) | < 0.0209 µM (active) | 11.6 µM (inactive) | > 100 µM (inactive) | 5.73 | 2.72 µM (inactive) |
